Experimental data from US9084766B2, “Compounds and compositions for targeting cancer stem cells” (Boston Biomedical, Inc., priority 2010, dated 2015).
Values joined by “and” are separate entries in the source; they are usually repeats but may differ in a detail not shown here. Equal values may be shown once. “Also recorded” adds a separate entry of the source.

Experiments:
[1] = system: FaDu human head and neck cancer; assay: Antitumor activity in subcutaneous FaDu xenograft mice; assay type: in vivo
Protocol: In the studies shown in FIG. 8, immunosuppressed mice with established subcutaneous FaDu human head and neck cancer were given indicated amount of hand grounded Compound 1 with Crystal Form 1, or vehicle control orally (po). Compound 1 was formulated in […]™. All regimens were administered daily (qd). Tumor sizes were evaluated periodically during treatment.
In the study shown in FIG. 9, immunosuppressed mice with established subcutaneous FaDu human head and neck cancer were given 100 mg/kg of micronized Compound 1 produced with the synthetic process described in FIGS. 5A and 5B (first crop), or vehicle control orally (po). Compound 1 was formulated in […]™. All regimens were administered daily (qd). Tumor sizes were evaluated periodically during treatment. Form 2 has been successfully manufactured by a current good manufacturing practice (cGMP) process and received approval from the FDA and Health Canada to be used in clinical trials.
Form 3 can only be generated from Form 1 using a specially designed slurry process described herein. […] In the study shown in FIG. 10, immunosuppressed mice with established subcutaneous FaDu human head and neck cancer were given 200 mg/kg of Compound 1 with hand grounded Crystal Form 1 or Form 3, or vehicle control orally (po). Compound 1 was formulated in gelucire. All regimens were administered daily (qd). Tumor sizes were evaluated periodically during treatment. This polymorph has been successfully manufactured by a cGMP process and received approval from FDA and Health Canada to be used in clinical trials.
The anti-tumor activity of particles of Compound 1 with different particle size ranges is illustrated in FIG. 15, and the pharmacokinetic data for particles of Compound 1 with different particle size ranges is illustrated in FIGS. 16-18. In the study shown in FIG. 15, immunosuppressed mice with established subcutaneous FaDu human head and neck cancer were given indicated amount of Compound 1 with indicated particle size, or vehicle control orally (po). All regimens were administered daily (qd). Tumor size was evaluated periodically.
In an experiment, a formulation of Compound 1 particles sieved to 160 micron was tested in the model of immunosuppressed mice with established subcutaneous xenograft FaDu human head and neck cancer. The pharmaceutical composition was formulated as 80 mg/ml in 9% Gelucire, 20% Vitamin E TPGS (Table 3). […] All regimens were administered daily (qd).
In an experiment, Compound 1 crystals were milled to a median particle size of about 20 micron. […] All regimens were administered daily (qd).
FaDu human head and neck cancer cells were inoculated subcutaneously into female athymic nude mice (6×10^6 cells/mouse) and allowed to form palpable tumors. When the tumors reached approximately 100 mm^3, the animals were treated orally (po) with Compound 1 at 100 mg/kg or vehicle control daily. Compound 1 was formulated at 10 mg/ml in 20% gelucire. Tumors and bodyweights were measured throughout treatment (FIG. 15).
Daily examinations into the health status of each animal were also conducted. Body weights were checked every three days. Food and water was supplied daily according to the animal husbandry procedures of the facility. Treatment producing>20% lethality and or >20% net body weight loss were considered toxic. Results are expressed as mean tumor volume (mm^3)±SE. P Values<0.05 are considered to be statistically relevant.
Male or female athymic nude mice 4-5 weeks (Charles River Laboratories, Wilmington, Mass.), were acclimated to the animal housing facility for at least 1 week before study initiation. […]

advanced solid tumors = assay: Phase I clinical trial: tumor response (RECIST 1.1) and progression free survival; assay type: in vivo, human
Excerpt: As of Feb. 7, 2011, 42 cancer patients with various advanced solid tumors who have failed chemotherapies were enrolled in the study.
Of the 42 patients dosed, 24 were evaluable for tumor response as of Feb. 7, 2011; 16 (16/24 evaluable patients) achieved stable disease (8 to 75+ weeks).

HT29 = assay: IC50 versus treatment time, HT29; assay type: cell-based; conditions: HT29 cancer cells
Protocol: The studies described herein discovered counter-intuitively that cancer cells and cancer stem cells requires much shorter exposure than normal cells to be killed by Compound 1. Normal cells can tolerate up to 24 hours of exposure to Compound 1. Furthermore, the studies here discovered that normal cells can recover after a short period of no-drug exposure, while cancer cells cannot recover once they are exposed to a certain concentration of the Compound 1 for at least 2 hours. Based on these studies, a special pharmacokinetic exposure [termed selective pharmacokinetic profile (SPP), or preferred pharmacokinetic profile (PPP), which is used interchangeably in this publication] was designed for Compound 1 using the data shown below in Table 14 for achieving selective antitumor activity in patients (FIG. 24).

[2] = patient 0001, total daily dose 20 mg qd, Colon adenocarcinoma
[3] = patient 0013, total daily dose 400 mg bid, Gastric adenocarcinoma
[4] = patient 0014, total daily dose 400 mg bid, Ovarian cancer
[5] = patient 0015, total daily dose 400 mg bid, Colon adenocarcinoma
[6] = patient 0020, total daily dose 600 mg bid, Breast Cancer

**Q.** How did the anti-tumor activity ([1]; composition of particle size less than 5 micron, mice) turn out when `CC(=O)c1cc2c(o1)C(=O)c1ccccc1C2=O` [Compound 1, 2-acetyl-4H,9H-naphtho[2,3-b]furan-4,9-dione] was run?
**A.** potent anti-tumor activity

**Q.** And the efficacy ([1]; composition with particle size greater than 20 micron, mice)?
**A.** no or weak efficacy

**Q.** And the efficacy ([1]; median particle size about 2 micron, 100 mg/kg po daily, 20% gelucire, 100 mg/kg)?
**A.** surprisingly enhanced anti-tumor activity; also recorded: good efficacy; also recorded: strong efficacy; also recorded: potent efficacy

**Q.** And the efficacy ([1]; median particle size about 2 micron, 100 mg/kg po daily, 20% gelucire, listed as naphthofuran compound, 100 mg/kg)?
**A.** dramatically enhanced efficacy

**Q.** What about the efficacy ([1]; median particle size about 20 micron, 200 mg/kg daily oral, 200 mg/kg) of the same molecule?
**A.** weak or moderate efficacy

**Q.** What about the efficacy ([1]; median particle size about 20 micron, 200 mg/kg daily oral, listed as naphthofuran compound, 200 mg/kg) of the same molecule?
**A.** relative weak

**Q.** What about the anti-tumor activity ([1]; nanoparticles, D50 about 100 nanometers (110.4 nanometers)) of the same molecule?
**A.** reduction of anti-tumor activity

**Q.** What about the efficacy ([1]; particles sieved to 160 micron (150 micron), 400 mg/kg daily oral, 400 mg/kg) of the same molecule?
**A.** no efficacy

**Q.** What about the efficacy ([1]; particles sieved to 160 micron (150 micron), 400 mg/kg daily oral, listed as naphthofuran compound, 400 mg/kg) of the same molecule?
**A.** no efficacy

**Q.** And the “patients showing prolonged SD (>12 weeks)” value (advanced solid tumors; RECIST 1.1)?
**A.** 12 patients

**Q.** And the “evaluable patients with SD/MR by RECIST” value (advanced solid tumors; as of Feb. 7, 2011)?
**A.** 16/24 and 16 out of 24

**Q.** What about the progression free survival (advanced solid tumors; blood drug concentration above 1 uM, diverse cancers (FIG. 23)) of the same molecule?
**A.** increase in progression free survival

**Q.** And the “patients in whom new metastatic lesions were prevented” value (advanced solid tumors; of patients dosed)?
**A.** 83%

**Q.** And the “patients showing no metastatic tumors” value (advanced solid tumors; out of 24 evaluable patients with advanced refractory cancers)?
**A.** over 80%

**Q.** What about the “response of colon cancer metastatic lesion to kidney” value (advanced solid tumors; patient 0001, 20 mg daily (FIG. 19)) of the same molecule?
**A.** complete regression; also recorded: signs of potent antitumor activity

**Q.** And the “New Lesions” value (advanced solid tumors; [2])?
**A.** 1

**Q.** What about the regression (advanced solid tumors; [2]) of the same molecule?
**A.** (regression 27.6%)

**Q.** And the “New Lesions” value (advanced solid tumors; patient 0002, total daily dose 40 mg qd, Gastric adenocarcinoma)?
**A.** 3

**Q.** And the “New Lesions” value (advanced solid tumors; patient 0003, total daily dose 80 mg qd, Head and Neck carcinoma)?
**A.** 0

**Q.** And the “New Lesions” value (advanced solid tumors; patient 0004, total daily dose 80 mg bid, Colon adenocarcinoma)?
**A.** 0

**Q.** What about the “New Lesions” value (advanced solid tumors; patient 0006, total daily dose 160 mg bid, Lung adenocarcinoma) of the same molecule?
**A.** 0

**Q.** What about the “New Lesions” value (advanced solid tumors; patient 0008, total daily dose 320 mg bid, Colon adenocarcinoma) of the same molecule?
**A.** 2

**Q.** And the “New Lesions” value (advanced solid tumors; patient 0010, total daily dose 320 mg bid, Colon adenocarcinoma)?
**A.** 0

**Q.** And the “New Lesions” value (advanced solid tumors; patient 0011, total daily dose 320 mg bid, Angiosarcoma)?
**A.** 0

**Q.** What about the “New Lesions” value (advanced solid tumors; patient 0012, total daily dose 320 mg bid, Prostate cancer) of the same molecule?
**A.** 0

**Q.** And the “Best Response, remark” value (advanced solid tumors; [3])?
**A.** (signs of regression)

**Q.** What about the “New Lesions” value (advanced solid tumors; [3]) of the same molecule?
**A.** 0

**Q.** And the “Best Response, remark” value (advanced solid tumors; [4])?
**A.** (CA 125 normalization)

**Q.** What about the “New Lesions” value (advanced solid tumors; [4]) of the same molecule?
**A.** 0

**Q.** And the “CEA change (Best Response, remark)” value (advanced solid tumors; [5])?
**A.** (CEA? >30-50%)

**Q.** What about the “New Lesions” value (advanced solid tumors; [5]) of the same molecule?
**A.** 0

**Q.** What about the “New Lesions” value (advanced solid tumors; patient 0016, total daily dose 600 mg bid, Pancreatic adenocarcinoma) of the same molecule?
**A.** 0

**Q.** And the “Best Response, remark” value (advanced solid tumors; [6])?
**A.** (hollow tumor)

**Q.** What about the “New Lesions” value (advanced solid tumors; [6]) of the same molecule?
**A.** 0

**Q.** And the “New Lesions” value (advanced solid tumors; patient 0021, total daily dose 800 mg bid, Chondrosarcoma)?
**A.** 0

**Q.** What about the “New Lesions” value (advanced solid tumors; patient 0022, total daily dose 800 mg bid, Prostate cancer) of the same molecule?
**A.** 0

**Q.** And the “New Lesions” value (advanced solid tumors; patient 0023, total daily dose 800 mg bid, Adenocorticoid)?
**A.** 0

**Q.** What about the “New Lesions” value (advanced solid tumors; patient 0024, total daily dose 1000 mg bid, Rectal cancer) of the same molecule?
**A.** 0

**Q.** And the “New Lesions” value (advanced solid tumors; patient 0027, total daily dose 1400 mg bid, Colon adenocarcinoma)?
**A.** 2

**Q.** And the “New Lesions” value (advanced solid tumors; patient 0032, total daily dose 200 mg tid, Colon adenocarcinoma)?
**A.** 0

**Q.** And the “New Lesions” value (advanced solid tumors; patient 0037, total daily dose 500 mg tid, Colon adenocarcinoma)?
**A.** 0

**Q.** And the progression free survival (advanced solid tumors; patients with exposure above 1.6 uM for at least 4 hours)?
**A.** improvement in progression free survival

**Q.** And the IC50 (HT29; treatment time 12-24 h)?
**A.** < 500 nM

**Q.** What about the IC50 (HT29; Homo sapiens, HT-29, treatment time 4-12 h) of the same molecule?
**A.** < 500 nM
